# Test results published in patent US20240425478A1, “CYCLOPENTYLPYRAZOLE CDK2 INHIBITORS” (Genentech, Inc., priority 2021, published 2024).
# Where two headings read alike, the source gives them in different places.
# Assays:
# [1] = system: HCT116 cells; test: p-H3 HCT-116 mitotic release cell proliferation assay (cellular CDK1); assay type: cell-based; settings: Homo sapiens
# Outline: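 Phospho-Histone H3 (Ser10) in lysates was quantified by a two-antibody HTRF FRET read (≥2 h, room temperature). Before this, HCT116 cells held in mitosis by 16 h of 500 nM nocodazole were treated with compound for 4 h at 37 °C, 0.1% DMSO.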
# [2] = molecular target: T1, Cyclin Dependent Kinase 2/Cyclin E1 (CDK2-cycE1) (Homo sapiens, UniProt P24941); test: CDK2-cycE1 TR-FRET (LANCE) enzyme assay; assay type: biochemical; settings: Table O; for Ki: enzymatic assay, read-out: CDK2 Ki; for FS CDK1/CDK2 / FS CDK4/CDK2: fold selectivity; for FS CDK1/CDK2: enzymatic CDK1 Ki over CDK2 Ki; for FS CDK4/CDK2: enzymatic CDK4 Ki over CDK2 Ki
# T1 construct: purchased ProQinase 0050-0055-1
# Outline: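 Kinase reaction buffer: 50 mM HEPES pH 7.5, 10 mM MgCl2, 2 mM TCEP, 0.05% BGG, 0.01% Brij 35, with 30 min compound–enzyme pre-incubation.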
# [3] = molecular target: T2, Cyclin Dependent Kinase 4/Cyclin D3 (CDK4-cycD3) (Homo sapiens, UniProt P11802); test: CDK4-cycD3 TR-FRET (LANCE) enzyme assay; assay type: biochemical; settings: Table O, enzymatic assay
# T2 construct: purchased Carna Biosciences 04-105
# T2 sequence (P11802 whole entry): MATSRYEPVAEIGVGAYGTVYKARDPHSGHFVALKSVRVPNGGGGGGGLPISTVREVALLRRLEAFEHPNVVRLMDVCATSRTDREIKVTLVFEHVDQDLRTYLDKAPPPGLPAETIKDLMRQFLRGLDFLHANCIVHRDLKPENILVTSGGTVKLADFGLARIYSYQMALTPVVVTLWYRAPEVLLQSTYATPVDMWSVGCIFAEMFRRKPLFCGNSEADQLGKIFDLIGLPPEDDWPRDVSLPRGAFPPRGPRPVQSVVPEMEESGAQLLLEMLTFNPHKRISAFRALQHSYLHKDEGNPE
# T2 sequence (P30281 whole entry partner): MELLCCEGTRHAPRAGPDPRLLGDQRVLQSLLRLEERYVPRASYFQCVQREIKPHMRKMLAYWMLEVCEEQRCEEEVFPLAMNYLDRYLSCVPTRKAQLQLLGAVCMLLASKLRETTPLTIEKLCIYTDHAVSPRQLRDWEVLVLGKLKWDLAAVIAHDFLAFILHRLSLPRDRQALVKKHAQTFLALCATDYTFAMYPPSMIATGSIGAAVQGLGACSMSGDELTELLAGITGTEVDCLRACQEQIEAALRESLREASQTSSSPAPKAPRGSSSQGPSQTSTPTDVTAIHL
# Outline: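 Compound dose responses pre-incubated 30 min with enzyme mix in 50 mM HEPES pH 7.5, 10 mM MgCl2, 2 mM TCEP, 0.05% BGG, 0.01% Brij 35. Reaction quenched with EDTA (15 mM final); Eu-anti-phospho-4E-BP1 TR-FRET detection, acceptor/donor ratio. Ki derived by Morrison equation.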
# [4] = system: SKOV-3 (ATCC HTB-77); test: SKOV-3 EdU incorporation cell proliferation assay (CDK4/6-dependent); assay type: cell-based; settings: Homo sapiens
# Outline: (§1)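 EdU incorporation (0.5 μM final, last 8 h) follows a 16 h compound exposure at 37 °C, 5% CO2 in RPMI plus 10% FBS, 0.5% DMSO. After fixation, imaging scores EdU-positive cells; a 4-parameter logistic fit of that fraction gives IC50.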
# [5] = molecular target: T3, Cyclin Dependent Kinase 1/Cyclin A2 (CDK1-cycA2) (Homo sapiens, UniProt P06493); test: CDK1-cycA2 TR-FRET (Lance) enzyme assay; assay type: biochemical; settings: Table O, enzymatic assay
# T3 construct: purchased ProQinase 0134-0054-1
# T3 sequence (P06493 whole entry): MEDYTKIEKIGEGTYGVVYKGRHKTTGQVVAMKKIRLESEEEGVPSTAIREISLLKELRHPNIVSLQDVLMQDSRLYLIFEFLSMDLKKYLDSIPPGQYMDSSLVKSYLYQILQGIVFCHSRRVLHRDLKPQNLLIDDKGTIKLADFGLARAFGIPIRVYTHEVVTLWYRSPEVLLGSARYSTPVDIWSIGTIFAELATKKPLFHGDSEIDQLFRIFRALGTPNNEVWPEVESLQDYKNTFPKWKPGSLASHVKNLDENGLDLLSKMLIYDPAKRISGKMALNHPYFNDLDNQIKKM
# T3 sequence (P20248 whole entry partner): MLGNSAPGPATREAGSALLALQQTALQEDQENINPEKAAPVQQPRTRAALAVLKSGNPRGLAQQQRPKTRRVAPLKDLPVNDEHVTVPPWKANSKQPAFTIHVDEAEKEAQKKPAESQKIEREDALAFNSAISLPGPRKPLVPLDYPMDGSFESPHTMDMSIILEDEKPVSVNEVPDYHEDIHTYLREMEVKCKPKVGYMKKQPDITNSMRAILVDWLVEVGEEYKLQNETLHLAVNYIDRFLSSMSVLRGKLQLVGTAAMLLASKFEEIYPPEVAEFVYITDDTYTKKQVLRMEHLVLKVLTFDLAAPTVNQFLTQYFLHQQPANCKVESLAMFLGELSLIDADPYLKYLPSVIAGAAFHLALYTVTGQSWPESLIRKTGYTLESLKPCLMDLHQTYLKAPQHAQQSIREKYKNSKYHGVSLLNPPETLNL
# Outline: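 TR-FRET (Lance) detection of phospho-4E-BP1 with a europium-labelled antibody after EDTA quench (15 mM final); signal taken as acceptor/donor ratio. Enzyme and compound were pre-incubated 30 min in HEPES pH 7.5 buffer with MgCl2, TCEP, BGG and Brij 35. Ki derived by Morrison fit.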
# [6] = system: OVISE (JCRB1043, CCNE1-amplified); test: OVISE EdU incorporation cell proliferation assay (CDK2-dependent); assay type: cell-based; settings: for IC50: read-out: CDK2 OVISE IC50; for FS SKOV-3/OVISE / FS p-H3/OVISE: fold selectivity; for FS SKOV-3/OVISE: cellular SKOV-3 IC50 over OVISE IC50; for FS p-H3/OVISE: cellular p-H3 IC50 over OVISE IC50
# Outline: as §1
# [7] = HCT-116, Table O, cellular assay, read-out: CDK1 p-H3 IC50
# [8] = SK-OV-3, Table O, cellular assay, read-out: CDK4/6 SKOV-3 IC50
"IC50 [1, 7]",Ki [2],FS CDK1/CDK2 [2],FS CDK4/CDK2 [2],Ki [3],"IC50 [4, 8]",Ki [5],SMILES,"IC50 ([6]; Table O, cellular assay)",FS SKOV-3/OVISE ([6]; Table O),FS p-H3/OVISE ([6]; Table O),"IC50 ([1]; HCT-116, read-out: CDK1 p-H3 IC50)","IC50 ([4]; SK-OV-3, read-out: CDK4/6 SKOV-3 IC50)",IC50 [6]
180 nM,1.8 nM,32,28,51 nM,5700 nM,58 nM,"CC(C)(C)NC(=O)O[C@@H]1CC[C@H](c2cc(Nc3ccnc(CO)c3)n[nH]2)C1 [Example 10C, (1R,3S)-3-(3-((2-(hydroxymethyl)pyridin-4-yl)amino)-1H-pyrazol-5-yl)cyclopentyl tert-butylcarbamate]",130 nM,44,1.4,,,
97 nM,0.44 nM,134,195,86 nM,2800 nM,59 nM,"Cc1nc(C#N)ccc1Nc1cc([C@H]2CC[C@@H](OC(=O)NC(C)(C)C)C2)[nH]n1 [Example 10D, (1R,3S)-3-(3-((6-cyano-2-methylpyridin-3-yl)amino)-1H-pyrazol-5-yl)cyclopentyl tert-butylcarbamate]",46 nM,61,2.1,,,
230 nM,0.63 nM,132,444,280 nM,12000 nM,83 nM,"Cc1nnccc1Nc1cc([C@H]2CC[C@@H](OC(=O)NC(C)(C)C)C2)[nH]n1 [Example 11A, (1R,3S)-3-(3-((3-methylpyridazin-4-yl)amino)-1H-pyrazol-5-yl)cyclopentyl tert-butylcarbamate]",120 nM,100,1.9,,,

# More lines, now with the values behind:
SMILES,"IC50 [1, 7]",Ki [2],FS CDK1/CDK2 [2],FS CDK4/CDK2 [2],Ki [3],"IC50 [4, 8]",Ki [5],"IC50 ([6]; Table O, cellular assay)",FS SKOV-3/OVISE ([6]; Table O),FS p-H3/OVISE ([6]; Table O),"IC50 ([1]; HCT-116, read-out: CDK1 p-H3 IC50)","IC50 ([4]; SK-OV-3, read-out: CDK4/6 SKOV-3 IC50)",IC50 [6]
"CN(C)Cc1ccc(Nc2cc([C@H]3CC[C@@H](OC(=O)NC45CC(C4)C5)C3)[nH]n2)cn1 [Example 9J, (1R,3S)-3-(3-((6-((dimethylamino)methyl)pyridin-3-yl)amino)-1H-pyrazol-5-yl)cyclopentyl bicyclo[1.1.1]pentan-1-ylcarbamate]",39 nM,1.9 nM,34,8.9,17 nM,280 nM,64 nM,89 nM,3.1,0.44,,,
"O=C(NC12CC(C1)C2)O[C@@H]1CC[C@H](c2cc(Nc3ccc(N4CCOCC4)nc3)n[nH]2)C1 [Example 9K, (1R,3S)-3-(3-((6-morpholinopyridin-3-yl)amino)-1H-pyrazol-5-yl)cyclopentyl bicyclo[1.1.1]pentan-1-ylcarbamate]",49 nM,5.6 nM,7.3,12,67 nM,710 nM,41 nM,190 nM,3.7,0.26,,,
"CC1(NC(=O)O[C@@H]2CC[C@H](c3cc(Nc4ccc(C#N)cn4)n[nH]3)C2)COC1 [Example 10E, (1R,3S)-3-(3-((5-cyanopyridin-2-yl)amino)-1H-pyrazol-5-yl)cyclopentyl (3-methyloxetan-3-yl)carbamate]",,0.78 nM,32,82,64 nM,,25 nM,,20,1.1,120 nM,2200 nM,110 nM
